Values after ≈ are worked out from the molar mass of the structure shown.

Here are results for 7 compounds from patent publication US4225619A, “Substituted fluoracylresorcinols” (Boehringer Ingelheim GmBH, priority 1976, dated 1980).

Type in all cases: cell-based
For experiment [1], the system named is Pityrosporum ovale CBS 1878. Briefly: Agar diffusion test for Pityrosporum ovale CBS 1878. Particulars: Malassezia furfur, CBS1878, 168 h, 7 days at 27° C., read-out: MIC, A.D.T., Pityrosporum ovale. As for the experimental part:
Agar diffusion test for Pityrosporum ovale CBS 1878 Nutrient medium
Littmann's agar, 23 ml per Petri dish, diameter of dish 100 mm.
Suspension of microorganisms in 0.9% sodium chloride solution, standardized using a photometer according to Eppendorf by means of a suspension for comparison consisting of barium sulfate. 0.05 ml per plate were used. The test substances were dissolved in dimethyl sulfoxide. The incubation time was 7 days at 27° C.; the area of inhibition in mm was measured, 0.05 ml of the solution of the substance were used for each punch-hole of a diameter of 6 mm. The results of these tests are recorded in the following tables 1 and 2: […]
Background: Agar diffusion results depend on both activity and mobility in agar.

Another experiment has as its system Corynebacterium acnes. Briefly: Serial dilution test for Corynebacterium acnes. Particulars: for MIC: Cutibacterium acnes, 37° C. for 48 hours, read-out: MIC, S.D.T., Corynebacterium acnes.
The subject of experiment [2] is Trichophyton mentagrophytes AT CC 9129. Briefly: Agar diffusion test (hole-test). Particulars: ATCC9129, 168 h, 27° C. for 7 days, read-out: MIC, A.D.T., Trichophyton mentagrophytes. As for the experimental part:
(§1) The inhibitory effect on bacteria and fungi was examined by the serial dilution test and the agar diffusion test (hole-test). As bacteria were used: Staphylococcus aureus SG 511, Streptococcus Aronson, Streptococcus pyogenes At CC 86 68; as fungi: Candida albicans AT CC 10231, Trichophyton mentagrophytes AT CC 9129 and Aspergillus niger.
(§2) 3. Sabouraud agar: for C. alb., Trich. ment., A. niger
(§3) The age of the primary cultures is 24 hours for bacteria and 14 days for fungi. The standardization of the suspension of microorganisms is effected using a photometer according to Eppendorf (test tube .phi.14 mm, filter 546 nm) and a suspension for comparison consisting of barium sulfate, this suspension being created by addition of 3.0 ml of 1% barium chloride solution to 97 ml of 1% sulfuric acid. After the standardization St. aureus SG 511 was diluted 1:1000 and Sc. pyogenes and Aronson 1:100 by means of sodium chloride solution. The fungi were used in an undiluted state.
(§4) 40 mgm of the substance were put into a 10 ml measuring flask and filled up to the mark with the solvent (corresponds to a dilution of 1:250=4000 μg/ml).
(§5) The dilutions to the concentrations under test were effected with distilled water or the respective solvent.
(§6) 19 ml of the nutrient medium were filled into sterile Petri dishes of a diameter of 8 cm and dried. Subsequently the agar plates were charged with 4 ml of seed agar. 100 ml of seed agar contain 1.25 ml of the suspension of microorganisms, an agar plate thus containing 0.05 ml of the suspension of microorganisms. After solidification of the agar, 5 holes of a diameter of 5 mm were punched into the plates and filled with 0.05 ml of the correspondingly concentrated substance solution.
(§7) Control tests merely using the solvent are to be carried out simultaneously.
(§8) Bacteria were incubated at 37° C. for 18-20 hours and fungi at 27° C. for 7 days.
(§9) The diameter of the area of inhibition in mm was measured after having deducted the diameter of the hole.

The test system of experiment [3] is Candida albicans AT CC 10231. Briefly: Agar diffusion test (hole-test). Conditions: ATCC10231, 168 h, 27° C. for 7 days, read-out: MIC, A.D.T., Candida albicans. As for the experimental part: as §1, §2, §3, §4, §5, §6, §7, §8, §9
The subject of the next experiment is Aspergillus niger. Briefly: Agar diffusion test (hole-test). Conditions: 168 h, 27° C. for 7 days, read-out: MIC, A.D.T., Aspergillus niger. As for the experimental part:
as §1, §2, §3, §4, §5, §6, §7, §8, §9

A further experiment deals with Pityrosporum ovale. Briefly: Serial dilution test for Pityrosporum ovale. Conditions: Malassezia furfur, 168 h, 27° C. for 7 days, read-out: MIC, S.D.T., Pityrosporum ovale. How it is done:
Serial dilution test for Corynebacterium acnes and Pityrosporum ovale Nutrient medium
For Corynebacterium acnes: thioglycolate-broth for Pityrosporum ovale: Littmann's broth, 5 ml per tube.
Suspension of microorganisms in 0.9% sodium chloride solution, standardized using a photometer according to Eppendorf by means of a suspension for comparison consisting of barium sulfate, for Corynebacterium acnes in a dilution of 1:100, for Pityrosporum ovale in an undiluted state. 0.1 ml of the suspensions was used per test tube. Dimethyl sulfoxide served as a solvent for the substances.
The suspension with Corynebacteria acnes was incubated at 37° C. for 48 hours, the suspension of Pityrosporum ovale at 27° C. for 7 days. The reading was effected by macroscopic evaluation of the growth of microorganisms and registration of the minimal inhibitory concentration.

The next experiment has as its system Streptococcus Aronson. Briefly: Serial dilution test. Particulars: Streptococcus, 18-20 hours at 37° C., read-out: MIC, S.D.T., Streptococcus Aronson.
Experiment [4] deals with Streptococcus pyogenes At CC 86 68. Briefly: Serial dilution test. Conditions: Streptococcus pyogenes, ATCC8668, 18-20 hours at 37° C., read-out: MIC, S.D.T., Streptococcus pyogenes.

As to `CCc1cc(C(=O)C(F)(F)F)c(O)cc1O` [B, 5-Ethyl-2,4-dihydroxy-trifluoroacetophenone, reference compound], the MIC (in general, the least concentration at which growth counts as inhibited) in experiment [1] amounted to 1000 µg/mL (≈ 4270 µM); in the experiment on Corynebacterium acnes, 20 µg/mL (≈ 85.4 µM); in experiment [2], 250 µg/mL (≈ 1070 µM); in experiment [3], 1000 µg/mL (≈ 4270 µM); with Aspergillus niger, 250 µg/mL (≈ 1070 µM); in the experiment with Pityrosporum ovale, 80 µg/mL (≈ 342 µM). Further, the MIC (with Streptococcus Aronson; in experiment [4]) was 20 µg/mL (≈ 85.4 µM) in each case.
Take `CCc1c(O)ccc(C(=O)C(F)(F)F)c1O` [C, 3-Ethyl-2,4-dihydroxy-trifluoroacetophenone, reference compound]: the MIC in experiment [1] is 1000 µg/mL (≈ 4270 µM); in the experiment on Corynebacterium acnes, 1.25 µg/mL (≈ 5.34 µM); in experiment [2], 62.5 µg/mL (≈ 267 µM); in experiment [3], 1000 µg/mL (≈ 4270 µM); with Aspergillus niger it was 1000 µg/mL (≈ 4270 µM); in the experiment with Pityrosporum ovale, over 80 µg/mL. Further, the MIC in the experiment with Streptococcus Aronson stood at 5 µg/mL (≈ 21.4 µM); in experiment [4] it was 1.25 µg/mL (≈ 5.34 µM).
In the case of `CC(C)Cc1c(O)ccc(C(=O)C(F)(F)F)c1O` [F, 2,4-Dihydroxy-3-iso-butyl-trifluoroacetophenone], the MIC was 250 µg/mL (≈ 953 µM) in experiment [1]; 0.31 µg/mL (≈ 1.18 µM) in the experiment with Corynebacterium acnes; at most 15.6 µg/mL in experiment [2]; 250 µg/mL (≈ 953 µM) in experiment [3]; 250 µg/mL (≈ 953 µM) in the experiment on Aspergillus niger; 80 µg/mL (≈ 305 µM) in the experiment with Pityrosporum ovale. Further, the MIC (in the experiment with Streptococcus Aronson; in experiment [4]) was 1.25 µg/mL (≈ 4.77 µM) each time.
Turning to `CC1CCC(c2c(O)ccc(C(=O)C(F)(F)F)c2O)CC1` (stereo not drawn) [H, 2,4-Dihydroxy-3-(4'-methyl)-cyclohexyl-trifluoro-acetophenone], the MIC in experiment [1] is 1000 µg/mL (≈ 3310 µM); in the experiment on Corynebacterium acnes it was 1.25 µg/mL (≈ 4.14 µM); in experiment [2], at most 15.6 µg/mL; in experiment [3], 1000 µg/mL (≈ 3310 µM); in the experiment on Aspergillus niger it was 62.5 µg/mL (≈ 207 µM); in the experiment with Pityrosporum ovale, over 80 µg/mL. The MIC with Streptococcus Aronson turned out to be 1.25 µg/mL (≈ 4.14 µM); in experiment [4], 0.31 µg/mL (≈ 1.03 µM).
For `CC(C)c1c(O)ccc(C(=O)C(F)(F)F)c1O` [P, 2,4-Dihydroxy-3-isopropyl-trifluoroacetophenone], the MIC with Corynebacterium acnes was 5 µg/mL (≈ 20.1 µM); with Streptococcus Aronson, 1.25 µg/mL (≈ 5.04 µM); in experiment [4], 1.25 µg/mL (≈ 5.04 µM). Further, in the experiment with Corynebacterium acnes (reduced growth at this concentration), the “Concentration with reduced growth (value in brackets), S.D.T., Corynebacterium acnes” value worked out at 1.25 µg/mL.
`O=C(c1ccc(O)cc1O)C(F)(F)F` [A, 2,4-Dihydroxy-trifluoroacetophenone, reference compound]: the MIC in experiment [1] was 1000 µg/mL (≈ 4850 µM); in the experiment on Corynebacterium acnes, 80 µg/mL (≈ 388 µM); in experiment [2], 250 µg/mL (≈ 1210 µM); in experiment [3] it was 1000 µg/mL (≈ 4850 µM); in the experiment with Aspergillus niger it was 250 µg/mL (≈ 1210 µM); in the experiment on Pityrosporum ovale, 80 µg/mL (≈ 388 µM). Besides, the MIC with Streptococcus Aronson amounted to 80 µg/mL (≈ 388 µM).
As to `COc1ccc(C(=O)C(F)(F)F)c(OC)c1` [D, 2,4-Dimethoxy-trifluoroacetophenone, reference compound], the MIC in experiment [1] was over 4000 µg/mL; with Corynebacterium acnes it was over 80 µg/mL; in experiment [2], over 4000 µg/mL; in experiment [3], over 4000 µg/mL; in the experiment on Aspergillus niger, over 4000 µg/mL; in the experiment on Pityrosporum ovale, over 80 µg/mL. In addition, the MIC (in the experiment on Streptococcus Aronson; in experiment [4]) was over 80 µg/mL each time.
